According to patent US10065990B2, “Cyclic peptide compound, and preparation method, pharmaceutical composition and use thereof” (HANGZHOU GUANYU BIO-MEDICAL CO., LTD, priority 2013, dated 2018):

Legend:
HDAC7 = target: T1, HDAC7 (Homo sapiens, UniProt Q8WUI4); experiment: HDAC biochemical activity measurement (fluorescent substrate deacetylation);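 note: fluorogenic deacetylation assay using acetyl-lysine substrate at 20 µM, enzyme and compound incubated 30 min at 37 °C, then developer added, fluorescence read at 360/460 nm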; details: HDAC7; 37° C. 30 minutes
T1 sequence (Q8WUI4 1-952): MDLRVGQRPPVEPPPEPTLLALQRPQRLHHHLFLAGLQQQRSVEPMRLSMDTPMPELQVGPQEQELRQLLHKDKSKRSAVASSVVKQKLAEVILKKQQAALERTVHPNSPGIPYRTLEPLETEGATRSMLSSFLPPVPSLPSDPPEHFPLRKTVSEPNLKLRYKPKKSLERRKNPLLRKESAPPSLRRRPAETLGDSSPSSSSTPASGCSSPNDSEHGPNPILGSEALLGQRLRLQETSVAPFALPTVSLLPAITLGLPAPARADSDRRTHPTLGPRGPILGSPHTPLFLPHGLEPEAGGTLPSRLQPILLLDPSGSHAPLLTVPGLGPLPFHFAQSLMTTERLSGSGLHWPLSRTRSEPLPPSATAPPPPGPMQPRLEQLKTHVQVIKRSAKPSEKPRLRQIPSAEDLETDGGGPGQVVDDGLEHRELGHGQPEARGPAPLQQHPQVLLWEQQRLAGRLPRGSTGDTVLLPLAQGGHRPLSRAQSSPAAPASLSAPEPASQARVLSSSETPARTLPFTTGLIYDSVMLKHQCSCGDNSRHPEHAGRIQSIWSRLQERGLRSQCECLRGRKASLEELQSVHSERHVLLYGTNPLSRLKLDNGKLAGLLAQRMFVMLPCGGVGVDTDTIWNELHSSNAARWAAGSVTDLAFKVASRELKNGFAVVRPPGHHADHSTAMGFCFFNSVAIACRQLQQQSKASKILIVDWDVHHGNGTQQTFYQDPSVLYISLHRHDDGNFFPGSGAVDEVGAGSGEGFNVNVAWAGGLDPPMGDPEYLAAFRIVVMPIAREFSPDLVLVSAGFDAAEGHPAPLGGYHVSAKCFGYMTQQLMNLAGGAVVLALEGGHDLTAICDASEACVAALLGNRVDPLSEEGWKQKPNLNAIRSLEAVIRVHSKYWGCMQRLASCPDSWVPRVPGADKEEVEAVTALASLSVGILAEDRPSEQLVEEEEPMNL

[1] = tested on: Bel-7402 (human hepatoma cells); experiment: MTT cancer cell growth inhibition; format: cell-based; details: Homo sapiens, Bel-7402, 72 h, MTT, 72 hours incubation, Bel-7402 cells; read-out: GI50 Bel-7402
How it was run: (§1)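 Absorbance at 570 nm of DMSO-dissolved formazan, formed during a 4 h MTT incubation, served as the viability measure. Cells had been exposed 72 h to drug at 10^−5–10^−10 M final; GI50 was calculated from these readings.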

[2] = tested on: HT1080 (human fibrosarcoma cells); experiment: MTT cancer cell growth inhibition; format: cell-based; details: Homo sapiens, HT-1080, 72 h, MTT, 72 hours incubation; read-out: GI50 HT1
How it was run: as §1

[3] = tested on: DU145 (human prostate cancer cells); experiment: MTT cancer cell growth inhibition; format: cell-based; details: Homo sapiens, DU-145, 72 h, MTT, 72 hours incubation; read-out: GI50 Du1
How it was run: as §1

[4] = tested on: Hela (human cervical cancer cells); experiment: MTT cancer cell growth inhibition; format: cell-based; details: Homo sapiens, HeLa, 72 h, MTT, 72 hours incubation; read-out: GI50 Hela
How it was run: as §1

[5] = tested on: MOLT-4 (human acute lymphoblastic leukemia cells); experiment: MTT cancer cell growth inhibition; format: cell-based; details: Homo sapiens, MOLT-4, 72 h, MTT, 72 hours incubation; read-out: GI50 Mol
How it was run: as §1

[6] = tested on: KBM-5 (human chronic myelogenous leukemia); experiment: MTT cancer cell growth inhibition; format: cell-based; details: Homo sapiens, KBM5, 72 h, MTT, 72 hours incubation, KBM-5 cells; read-out: GI50 KBM-5
How it was run: as §1

[7] = tested on: lncap (prostate cancer cells); experiment: MTT cancer cell growth inhibition; format: cell-based; details: Homo sapiens, LNCaP, 72 h, MTT, 72 hours incubation; read-out: GI50 lnca
How it was run: as §1

[8] = tested on: N-87 (human gastric cancer cells); experiment: MTT cancer cell growth inhibition; format: cell-based; details: Homo sapiens, 72 h, MTT, 72 hours incubation, N-87 cells; read-out: GI50 N-87
How it was run: as §1

[9] = tested on: Huh-7 (human hepatoma cells); experiment: MTT cancer cell growth inhibition; format: cell-based; details: Homo sapiens, Huh-7, 72 h, MTT, 72 hours incubation, Huh-7 cells; read-out: GI50 Huh-7
How it was run: as §1

[10] = tested on: H1975 (non-small cell lung adenocarcinoma); experiment: MTT cancer cell growth inhibition; format: cell-based; details: Homo sapiens, NCI-H1975, 72 h, MTT, 72 hours incubation, H1975 cells; read-out: GI50 H1975
How it was run: as §1

[11] = tested on: PANC-1 (Pac-1, human pancreatic cancer cells); experiment: MTT cancer cell growth inhibition; format: cell-based; details: Homo sapiens, PANC-1, 72 h, MTT, 72 hours incubation; read-out: GI50 PAN
How it was run: as §1

[12] = tested on: SGC-7901 (human gastric cancer cells); experiment: MTT cancer cell growth inhibition; format: cell-based; details: Homo sapiens, SGC-7901, 72 h, MTT, 72 hours incubation, SGC-7901 cells; read-out: GI50 SGC-7901
How it was run: as §1

[13] = tested on: K562 (human leukemia cells); experiment: MTT cancer cell growth inhibition; format: cell-based; details: Homo sapiens, K562, 72 h, MTT, 72 hours incubation, K562 cells; read-out: GI50 K562
How it was run: as §1

[14] = tested on: KBM5-T315I (human chronic myelogenous leukemia); experiment: MTT cancer cell growth inhibition; format: cell-based; details: Homo sapiens, 72 h, MTT, 72 hours incubation, KBM5-T315I cells; read-out: GI50 KBM5-T315I
How it was run: as §1

[15] = tested on: MCF-7 (human breast cancer cells); experiment: MTT cancer cell growth inhibition; format: cell-based; details: Homo sapiens, MCF7, 72 h, 72 hours incubation, read-out: GI50 MCF
How it was run: as §1

[16] = tested on: MDA-MB-231 (breast cancer cells); experiment: MTT cancer cell growth inhibition; format: cell-based; details: Homo sapiens, MDA-MB-231, 72 h, read-out: GI50 MDA-MB-231, MTT, 72 hours incubation, MDA-MB-231 cells
How it was run: as §1

[17] = tested on: A549 (human lung cancer cells); experiment: MTT cancer cell growth inhibition; format: cell-based; details: Homo sapiens, A549, 72 h, MTT, 72 hours incubation; read-out: GI50 A54
How it was run: as §1

[18] = tested on: BGC-823 (human gastric cancer cells); experiment: MTT cancer cell growth inhibition; format: cell-based; details: Homo sapiens, BGC-823, 72 h, MTT, 72 hours incubation; read-out: GI50 BG
How it was run: as §1

[19] = tested on: HCC827 (human non-small cell lung cancer cells); experiment: MTT cancer cell growth inhibition; format: cell-based; details: Homo sapiens, HCC827, 72 h, MTT, 72 hours incubation, HCC827 cells; read-out: GI50 HCC827
How it was run: as §1

[20] = tested on: U937 (human leukemia cells); experiment: MTT cancer cell growth inhibition; format: cell-based; details: Homo sapiens, U-937, 72 h, MTT, 72 hours incubation; read-out: GI50 U93
How it was run: as §1

C=C1NC(=O)c2cccc(n2)CNC(=O)C[C@@H](/C=C/CCSC(C)=O)OC(=O)[C@H](C)NC1=O [Example 21]
IC50 HDAC7 (HDAC7): no activity
GI50 [1]: 83 nM
GI50 [2]: 1050 nM
GI50 [3]: 990 nM
GI50 [4]: 400 nM
GI50 [5]: 1010 nM
GI50 [6]: 73 nM
GI50 [7]: 1210 nM
GI50 [8]: 35 nM
GI50 [9]: 84 nM
GI50 [10]: 37 nM
GI50 [11]: 1170 nM
GI50 [12]: 24 nM
GI50 [13]: 25 nM
GI50 [14]: 27 nM
GI50 [15]: 100 nM
GI50 [16]: 98 nM
GI50 [17]: 330 nM
GI50 [18]: 870 nM
GI50 [19]: 34 nM
GI50 [20]: 5110 nM

C/C=C1\NC(=O)c2cccc(n2)CNC(=O)C[C@@H](/C=C/CCSC(C)=O)OC(=O)[C@@H](C)NC1=O [Example 25]
IC50 HDAC7 (HDAC7): no activity
GI50 [1]: 93 nM
GI50 [2]: 39200 nM
GI50 [3]: 1300 nM
GI50 [4]: 67700 nM
GI50 [5]: 300 nM
GI50 [6]: 59 nM
GI50 [7]: 700 nM
GI50 [8]: 38 nM
GI50 [9]: 62 nM
GI50 [10]: 42 nM
GI50 [11]: 550 nM
GI50 [12]: 29 nM
GI50 [13]: 27 nM
GI50 [14]: 29 nM
GI50 [15]: 53600 nM
GI50 [16]: 92 nM
GI50 [17]: 15400 nM
GI50 [18]: 3300 nM
GI50 [19]: 33 nM
GI50 [20]: 2290 nM

C/C=C1\NC(=O)c2cccc(n2)CNC(=O)C[C@@H](/C=C/CCS)OC(=O)[C@H](CC)NC1=O [Example 28]
IC50 HDAC7 (HDAC7): no activity
GI50 [1]: 92 nM
GI50 [2]: 40 nM
GI50 [3]: 430 nM
GI50 [4]: 810 nM
GI50 [5]: 80 nM
GI50 [6]: 73 nM
GI50 [7]: 390 nM
GI50 [8]: 42 nM
GI50 [9]: 73 nM
GI50 [10]: 35 nM
GI50 [11]: 20 nM
GI50 [12]: 34 nM
GI50 [13]: 35 nM
GI50 [14]: 51 nM
GI50 [15]: 930 nM
GI50 [16]: 86 nM
GI50 [17]: 420 nM
GI50 [18]: 1100 nM
GI50 [19]: 37 nM
GI50 [20]: 2110 nM

C/C=C1\NC(=O)c2cccc(n2)CNC(=O)C[C@@H](/C=C/CCS)OC(=O)[C@H](C)NC1=O [Example 29]
IC50 HDAC7 (HDAC7): no activity
GI50 [1]: 91 nM
GI50 [2]: 60 nM
GI50 [3]: 70 nM
GI50 [4]: 910 nM
GI50 [5]: 70 nM
GI50 [6]: 43 nM
GI50 [7]: 50 nM
GI50 [8]: 33 nM
GI50 [9]: 77 nM
GI50 [10]: 63 nM
GI50 [11]: 80 nM
GI50 [12]: 29 nM
GI50 [13]: 34 nM
GI50 [14]: 37 nM
GI50 [15]: 1210 nM
GI50 [16]: 87 nM
GI50 [17]: 270 nM
GI50 [18]: 90 nM
GI50 [19]: 29 nM
GI50 [20]: 450 nM

C/C=C1\NC(=O)c2cc(F)cc(n2)CNC(=O)C[C@@H](/C=C/CCSC(=O)CCCCCCC)OC(=O)[C@H](C(C)C)NC1=O [Example 31]
IC50 HDAC7 (HDAC7): no activity
GI50 [1]: 57 nM
GI50 [2]: 50 nM
GI50 [3]: 20 nM
GI50 [4]: 90 nM
GI50 [5]: 10 nM
GI50 [6]: 92 nM
GI50 [7]: 10 nM
GI50 [8]: 52 nM
GI50 [9]: 19 nM
GI50 [10]: 42 nM
GI50 [11]: 50 nM
GI50 [12]: 77 nM
GI50 [13]: 27 nM
GI50 [14]: 63 nM
GI50 [15]: 60 nM
GI50 [16]: 19 nM
GI50 [17]: 70 nM
GI50 [18]: 50 nM
GI50 [19]: 57 nM
GI50 [20]: 40 nM

C/C=C1\NC(=O)c2ccc(F)c(n2)CNC(=O)C[C@@H](/C=C/CCSC(=O)CCCCCCC)OC(=O)[C@H](C(C)C)NC1=O [Example 32]
IC50 HDAC7 (HDAC7): no activity
GI50 [1]: 67 nM
GI50 [2]: 60 nM
GI50 [3]: 30 nM
GI50 [4]: 70 nM
GI50 [5]: 30 nM
GI50 [6]: 71 nM
GI50 [7]: 30 nM
GI50 [8]: 69 nM
GI50 [9]: 38 nM
GI50 [10]: 53 nM
GI50 [11]: 60 nM
GI50 [12]: 45 nM
GI50 [13]: 34 nM
GI50 [14]: 58 nM
GI50 [15]: 50 nM
GI50 [16]: 38 nM
GI50 [17]: 40 nM
GI50 [18]: 60 nM
GI50 [19]: 67 nM
GI50 [20]: 50 nM
